Biological target: T1, human PF4 (Homo sapiens, UniProt P02776)
T1 construct: PF4 is a 70 amino acid, lysine-rich 7.8 kDa platelet-specific protein; made in house; host or cells: Escherichia coli BL21DE3 pLysS (pT7-7) and/or Drosophila S2 cells
T1 sequence (P02776 32-101): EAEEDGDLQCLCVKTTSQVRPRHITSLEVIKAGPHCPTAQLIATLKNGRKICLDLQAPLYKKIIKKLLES
Test: Inhibition of PF4 tetramer formation (BS3 cross-linking, SDS-PAGE)
Assay type: biochemical
Conditions: for inhibition at 5 µM: 5 μM inhibitor; for inhibition at 5 µM / inhibition at 10 µM: read-out: % inhibition of PF4 tetramer formation at single concentration of inhibitor; for inhibition at 10 µM: 10 μM inhibitor (column A); for IC50: read-out: IC50 of PF4 tetramer formation inhibition
Procedure, shortened: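 Recombinant human wild-type PF4 (E. coli-expressed, heparin-purified), 10 μg/ml in PBS, incubated with compound 15 min at 37° C or 60 min at room temperature, then cross-linked with 0.2 mM BS3 for 30 min at room temperature. Reducing 12% SDS-PAGE; bands quantified as % tetramer, trimer, dimer, monomer versus compound-free control.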

| Structure (SMILES) | inhibition at 5 µM | inhibition at 10 µM | IC50 |
| --- | --- | --- | --- |
| Cc1ccc(NC(=O)C2C(=O)c3ccc(C(=O)c4ccc5c(c4)C(=O)C(C(=O)Nc4ccc(C)cc4)C5=O)cc3C2=O)cc1 (stereo not drawn) [Example 91, N-(4-methylphenyl)-5-{2-[(4-methylphenyl)carbamoyl]-1,3-dioxo-2,3-dihydro-1H-indene-5-carbonyl}-1,3-dioxo-2,3-dihydro-1H-indene-2-carboxamide] | 20% | 35% | – |
| Cc1ccc(NC(=O)C2C(=O)c3ccc(S(=O)(=O)c4ccc5c(c4)C(=O)C(C(=O)Nc4ccc(C)cc4)C5=O)cc3C2=O)cc1 (stereo not drawn) [Example 92, N-(4-methylphenyl)-5-({2-[(4-methylphenyl)carbamoyl]-1,3-dioxo-2,3-dihydro-1H-inden-5-yl}sulfonyl)-1,3-dioxo-2,3-dihydro-1H-indene-2-carboxamide] | 60% | 65% | – |
| O=C(NCc1ccccc1)C1C(=O)c2ccc(S(=O)(=O)c3ccc4c(c3)C(=O)C(C(=O)NCc3ccccc3)C4=O)cc2C1=O (stereo not drawn) [Example 93, N-benzyl-5-{[2-(benzylcarbamoyl)-1,3-dioxo-2,3-dihydro-1H-inden-5-yl]sulfonyl}-1,3-dioxo-2,3-dihydro-1H-indene-2-carboxamide] | 70% | 75% | – |
| COc1ccc(NC(=O)C2C(=O)c3ccc(S(=O)(=O)c4ccc5c(c4)C(=O)C(C(=O)Nc4ccc(OC)cc4OC)C5=O)cc3C2=O)c(OC)c1 (stereo not drawn) [Example 94, N-(2,4-dimethoxyphenyl)-5-({2-[(2,4-dimethoxyphenyl)carbamoyl]-1,3-dioxo-2,3-dihydro-1H-inden-5-yl}sulfonyl)-1,3-dioxo-2,3-dihydro-1H-indene-2-carboxamide] | 33% | 62% | – |
| O=C(Nc1ccc(I)cc1)C1C(=O)c2ccc(S(=O)(=O)c3ccc4c(c3)C(=O)C(C(=O)Nc3ccc(I)cc3)C4=O)cc2C1=O (stereo not drawn) [Example 95, N-(4-iodophenyl)-5-({2-[(4-iodophenyl)carbamoyl]-1,3-dioxo-2,3-dihydro-1H-inden-5-yl}sulfonyl)-1,3-dioxo-2,3-dihydro-1H-indene-2-carboxamide] | 33% | 69% | – |
| COc1ccc(NC(=O)C2C(=O)c3ccc(C(=O)c4ccc5c(c4)C(=O)C(C(=O)Nc4ccc(OC)cc4OC)C5=O)cc3C2=O)c(OC)c1 (stereo not drawn) [Example 96, N-(2,4-dimethoxyphenyl)-5-{2-[(2,4-dimethoxyphenyl)carbamoyl]-1,3-dioxo-2,3-dihydro-1H-indene-5-carbonyl}-1,3-dioxo-2,3-dihydro-1H-indene-2-carboxamide] | 36% | 70% | – |
| COC(=O)c1ccccc1NC(=O)C1C(=O)c2ccc(S(=O)(=O)c3ccc4c(c3)C(=O)C(C(=O)Nc3ccccc3C(=O)OC)C4=O)cc2C1=O (stereo not drawn) [Example 97, methyl 2-{5-[(2-{[2-(methoxycarbonyl)phenyl]carbamoyl}-1,3-dioxo-2,3-dihydro-1H-inden-5-yl)sulfonyl]-1,3-dioxo-2,3-dihydro-1H-indene-2-amido}benzoate] | 100% | 100% | 8.9 µM |
| COC(=O)c1ccc(NC(=O)C2C(=O)c3ccc(S(=O)(=O)c4ccc5c(c4)C(=O)C(C(=O)Nc4ccc(C(=O)OC)cc4)C5=O)cc3C2=O)cc1 (stereo not drawn) [Example 98, methyl 4-{5-[(2-{[4-(methoxycarbonyl)phenyl]carbamoyl}-1,3-dioxo-2,3-dihydro-1H-inden-5-yl)sulfonyl]-1,3-dioxo-2,3-dihydro-1H-indene-2-amido}benzoate] | 100% | 100% | – |
| COC(=O)c1ccccc1NC(=O)C1C(=O)c2ccc(C(=O)c3ccc4c(c3)C(=O)C(C(=O)Nc3ccccc3C(=O)OC)C4=O)cc2C1=O (stereo not drawn) [Example 99, methyl 2-[5-(2-{[2-(methoxycarbonyl)phenyl]carbamoyl}-1,3-dioxo-2,3-dihydro-1H-indene-5-carbonyl)-1,3-dioxo-2,3-dihydro-1H-indene-2-amido]benzoate] | 44% | 100% | 13 µM |
| CC(C)(C)OC(=O)N1CCC[C@H]1C(=O)C1C(=O)c2ccc(C(=O)c3ccc4c(c3)C(=O)C(C(=O)[C@@H]3CCCN3C(=O)OC(C)(C)C)C4=O)cc2C1=O (stereo partly drawn) [Example 111, tert-butyl (2S)-2-(5-{2-[(2S)-1-[(tert-butoxy)carbonyl]pyrrolidine-2-carbonyl]-1,3-dioxo-2,3-dihydro-1H-indene-5-carbonyl}-1,3-dioxo-2,3-dihydro-1H-indene-2-carbonyl)pyrrolidine-1-carboxylate] | 100% | 100% | 0.5 µM |
| CC(C)(C)OC(=O)N1C[C@H](F)C[C@H]1C(=O)C1C(=O)c2ccc(C(=O)c3ccc4c(c3)C(=O)C(C(=O)[C@@H]3C[C@@H](F)CN3C(=O)OC(C)(C)C)C4=O)cc2C1=O (stereo partly drawn) [Example 113, tert-butyl (2S,4R)-2-(5-{2-[(2S,4R)-1-[(tert-butoxy)carbonyl]-4-fluoropyrrolidine-2-carbonyl]-1,3-dioxo-2,3-dihydro-1H-indene-5-carbonyl}-1,3-dioxo-2,3-dihydro-1H-indene-2-carbonyl)-4-fluoropyrrolidine-1-carboxylate] | 68% | 86% | 5.4 µM |

Next, values leading:

| inhibition at 5 µM | inhibition at 10 µM | IC50 | Structure (SMILES) |
| --- | --- | --- | --- |
| – | – | ~13 µM | COc1cc(CCNC(=O)C2C(=O)c3ccc(C(=O)c4ccc5c(c4)C(=O)C(C(=O)NCCc4cc(OC)cc(OC)c4)C5=O)cc3C2=O)cc(OC)c1 (stereo not drawn) [Example 100, N-[2-(3,5-dimethoxyphenyl)ethyl]-5-(2-{[2-(3,5-dimethoxyphenyl)ethyl]carbamoyl}-1,3-dioxo-2,3-dihydro-1H-indene-5-carbonyl)-1,3-dioxo-2,3-dihydro-1H-indene-2-carboxamide] |
| 80% | 71% | – | CCCCc1ccc(NC(=O)C2C(=O)c3ccc(C(=O)c4ccc5c(c4)C(=O)C(C(=O)Nc4ccc(CCCC)cc4)C5=O)cc3C2=O)cc1 (stereo not drawn) [Example 101, N-(4-butylphenyl)-5-{2-[(4-butylphenyl)carbamoyl]-1,3-dioxo-2,3-dihydro-1H-indene-5-carbonyl}-1,3-dioxo-2,3-dihydro-1H-indene-2-carboxamide] |
| 78% | 100% | 2.9 µM | CCCCc1ccc(NC(=O)C2C(=O)c3ccc(S(=O)(=O)c4ccc5c(c4)C(=O)C(C(=O)Nc4ccc(CCCC)cc4)C5=O)cc3C2=O)cc1 (stereo not drawn) [Example 102] |
| 66% | 77% | 0.5 µM | CC(=O)c1cccc(NC(=O)C2C(=O)c3ccc(C(=O)c4ccc5c(c4)C(=O)C(C(=O)Nc4cccc(C(C)=O)c4)C5=O)cc3C2=O)c1 (stereo not drawn) [Example 103, N-(3-acetylphenyl)-5-{2-[(3-acetylphenyl)carbamoyl]-1,3-dioxo-2,3-dihydro-1H-indene-5-carbonyl}-1,3-dioxo-2,3-dihydro-1H-indene-2-carboxamide] |
| – | – | 1.4 µM | O=C(NCc1ccco1)C1C(=O)c2ccc(S(=O)(=O)c3ccc4c(c3)C(=O)C(C(=O)NCc3ccco3)C4=O)cc2C1=O (stereo not drawn) [Example 104, N-[(furan-2-yl)methyl]-5-[(2-{[(furan-2-yl)methyl]carbamoyl}-1,3-dioxo-2,3-dihydro-1H-inden-5-yl)sulfonyl]-1,3-dioxo-2,3-dihydro-1H-indene-2-carboxamide] |
| – | – | 2.8 µM | O=C(c1ccc2c(c1)C(=O)C(C(=O)Nc1ccc(I)cc1)C2=O)c1ccc2c(c1)C(=O)C(C(=O)Nc1ccc(I)cc1)C2=O (stereo not drawn) [Example 105, N-(4-iodophenyl)-5-{2-[(4-iodophenyl)carbamoyl]-1,3-dioxo-2,3-dihydro-1H-indene-5-carbonyl}-1,3-dioxo-2,3-dihydro-1H-indene-2-carboxamide] |
| – | – | ~4 µM | O=C(NC1CC1)C1C(=O)c2ccc(Oc3ccc4c(c3)C(=O)C(C(=O)NC3CC3)C4=O)cc2C1=O (stereo not drawn) [Example 106, N-cyclopropyl-5-{[2-(cyclopropylcarbamoyl)-1,3-dioxo-2,3-dihydro-1H-inden-5-yl]oxy}-1,3-dioxo-2,3-dihydro-1H-indene-2-carboxamide] |
| – | – | 2.9 µM | O=C(NC1CCCC1)C1C(=O)c2ccc(Oc3ccc4c(c3)C(=O)C(C(=O)NC3CCCC3)C4=O)cc2C1=O (stereo not drawn) [Example 107, N-cyclopentyl-5-{[2-(cyclopentylcarbamoyl)-1,3-dioxo-2,3-dihydro-1H-inden-5-yl]oxy}-1,3-dioxo-2,3-dihydro-1H-indene-2-carboxamide] |
| – | – | 5.4 µM | O=C(NC1CC1)C1C(=O)c2ccc(C(c3ccc4c(c3)C(=O)C(C(=O)NC3CC3)C4=O)(C(F)(F)F)C(F)(F)F)cc2C1=O (stereo not drawn) [Example 108, N-cyclopropyl-5-{2-[2-(cyclopropylcarbamoyl)-1,3-dioxo-2,3-dihydro-1H-inden-5-yl]-1,1,1,3,3,3-hexafluoropropan-2-yl}-1,3-dioxo-2,3-dihydro-1H-indene-2-carboxamide] |
| 68% | 59% | – | O=C(NC1CCCC1)C1C(=O)c2ccc(C(c3ccc4c(c3)C(=O)C(C(=O)NC3CCCC3)C4=O)(C(F)(F)F)C(F)(F)F)cc2C1=O (stereo not drawn) [Example 109, N-cyclopentyl-5-{2-[2-(cyclopentylcarbamoyl)-1,3-dioxo-2,3-dihydro-1H-inden-5-yl]-1,1,1,3,3,3-hexafluoropropan-2-yl}-1,3-dioxo-2,3-dihydro-1H-indene-2-carboxamide] |
| 84% | 87% | ~4 µM | O=C(NC1CC1)C1C(=O)c2ccc(-c3ccc4c(c3)C(=O)C(C(=O)NC3CC3)C4=O)cc2C1=O (stereo not drawn) [Example 110, (2Z,2′Z)-2,2′-bis[(cyclopropylamino)(hydroxyl)methylidene]-1H,1′H,2H,2′H,3H,3′H-[5,5′-biindene]-1,1′,3,3′-tetrone] |

Reference: patent US20250281424A1 (New York Blood Center, Inc, priority 2020, published 2025)
